Experimental findings from patent publication EP1220852B1, “SUBSTITUTED DIAZEPANS” (Novartis AG, priority 1999, dated 2001) are described below.

Usually IC50 stands for the point on the concentration scale where inhibition reaches its midpoint. Read a low IC50 as greater potency in that assay.

Test [1] deals with T1, LFA-1/ICAM-1 (Homo sapiens, UniProt P05107+P20701).
T1 construct: endogenous in cells; host or cells: LFA-1: endogenous protein purified from JY cells (human lymphoblastoid B cell line); ICAM-1-Cκ fusion: made in house with the baculovirus system
Put plainly: Cell free assay: binding of soluble human ICAM-1 to immobilized human LFA-1.
Method: A. In vitro: Cell Free Assay
The assay measures the binding of soluble human ICAM-1 to immobilized human LFA-1. LFA-1 is purified from JY cells, a human lymphoblastoid B cell-line, by immunoaffinity chromatography as described by Dustin et a/. […] ICAM-1 mouse Cκ fusion protein (ICAM-1) is produced using the baculovirus system as described by Weitz-Schmidt et al. (Anal. Biochem.238,184-190, 1996).
Purified LFA-1 is diluted 1:20 in phosphate buffered saline (PBS) containing 2 mM MgCl2, pH 7.4 and coated onto microtitre plates (Nunc) at 37°C for 3h. Plates are blocked with 1% heat-treated BSA in PBS for 2 hours at 37°C followed by a washing step using PBS, 2mM MgCl2, 1% fetal calf serum, pH 7.4 (assay buffer). Compounds dissolved at 10 mM in DMSO are diluted in assay buffer and added to the plates. Biotinylated recombinant ICAM-1 in assay buffer (6 µg/ml) is added and allowed to bind at 37°C for one hour. After incubation, wells are washed with assay buffer. Streptavidin-peroxidase diluted 1:5000 in assay buffer is added and incubated for 45 min at 37 °C. Plates are then washed with assay buffer and 2.2'-azino-bis(3-ethylbenzothiazoiine-6 sulfonic acid) diammonium salt substrate solution is added to each well. The reaction is stopped after 20 min and bound ICAM-1 is determined by measuring the optical density at 405 nm in a microplate reader.

Test [2] has as its system allergic contact dermatitis. Put plainly: Allergic contact dermatitis (ACD), oxazolone-induced, pinnal weight. It is filed as in vivo, female NMRI mice. Conditions: pinnal weight 24 h after challenge. How it is done: ii) Allergic Contact Dermatitis (ACD)
Groups of 8 female NMRI mice are sensitized on the shaved abdomen with 50 µl of oxazolone (Sigma, 2% in acetone) and challenged with 10 µl of 0.2 or 2.0% oxazolone on the inner surface of the right ear 7 days later. The low concentration of oxazolone for induction of the elicitation phase is used for testing compounds on […] activity whereas the high concentration is applied for […] testing. The unchallenged left ears serve as normal controls and dermatitis is evaluated from the individual differences in pinnal weight, which is taken as a measure of increase in inflammatory swelling 24 h after the challenge. Dermatitis is evaluated in test- and for comparison in control groups. The test groups are treated with the test compounds either orally (twice, 2 h and immediately before challenge), subcutaneously (immediately before challenge) or topically (30 min after challenge at the site of elicitation of the ACD); the controls are treated similarly with the vehicles alone. […] The data of the test- and the vehicle-treated control groups are statistically analysed by ANOVA followed by Dunnet T-test (normal distribution or data) or by H and U-test, respectively. […]

SMILES strings stand for the structures.

T1 sequence (P20701 26-1170): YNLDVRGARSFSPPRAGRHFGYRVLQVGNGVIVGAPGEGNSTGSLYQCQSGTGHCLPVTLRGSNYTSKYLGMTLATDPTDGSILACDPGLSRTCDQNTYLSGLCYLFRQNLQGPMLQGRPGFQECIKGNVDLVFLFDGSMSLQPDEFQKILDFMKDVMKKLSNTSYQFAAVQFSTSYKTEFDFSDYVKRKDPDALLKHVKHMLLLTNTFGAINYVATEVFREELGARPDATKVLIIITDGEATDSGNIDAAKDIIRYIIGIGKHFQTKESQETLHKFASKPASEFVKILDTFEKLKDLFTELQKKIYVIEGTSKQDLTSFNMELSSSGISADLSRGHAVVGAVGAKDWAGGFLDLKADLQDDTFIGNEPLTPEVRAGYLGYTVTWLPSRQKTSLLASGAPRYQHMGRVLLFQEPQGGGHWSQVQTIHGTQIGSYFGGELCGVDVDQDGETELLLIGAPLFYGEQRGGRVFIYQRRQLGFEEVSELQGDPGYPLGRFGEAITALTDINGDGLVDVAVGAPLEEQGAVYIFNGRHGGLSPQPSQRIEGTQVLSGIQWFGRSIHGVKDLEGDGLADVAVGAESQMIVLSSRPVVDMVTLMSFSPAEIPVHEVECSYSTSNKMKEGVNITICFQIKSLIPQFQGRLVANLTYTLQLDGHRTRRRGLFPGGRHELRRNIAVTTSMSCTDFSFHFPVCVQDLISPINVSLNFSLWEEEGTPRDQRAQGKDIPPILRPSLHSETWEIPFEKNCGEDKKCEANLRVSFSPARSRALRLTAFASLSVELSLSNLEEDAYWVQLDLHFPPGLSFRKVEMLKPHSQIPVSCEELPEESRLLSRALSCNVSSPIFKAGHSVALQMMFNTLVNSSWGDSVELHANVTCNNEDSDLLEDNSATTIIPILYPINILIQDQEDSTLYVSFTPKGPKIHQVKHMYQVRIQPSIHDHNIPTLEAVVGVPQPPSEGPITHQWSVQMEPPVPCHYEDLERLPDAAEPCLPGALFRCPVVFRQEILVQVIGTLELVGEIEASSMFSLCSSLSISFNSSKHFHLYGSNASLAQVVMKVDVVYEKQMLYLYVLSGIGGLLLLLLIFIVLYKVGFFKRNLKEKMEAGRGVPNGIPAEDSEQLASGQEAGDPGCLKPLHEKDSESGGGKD
T1 sequence (P05107 23-769): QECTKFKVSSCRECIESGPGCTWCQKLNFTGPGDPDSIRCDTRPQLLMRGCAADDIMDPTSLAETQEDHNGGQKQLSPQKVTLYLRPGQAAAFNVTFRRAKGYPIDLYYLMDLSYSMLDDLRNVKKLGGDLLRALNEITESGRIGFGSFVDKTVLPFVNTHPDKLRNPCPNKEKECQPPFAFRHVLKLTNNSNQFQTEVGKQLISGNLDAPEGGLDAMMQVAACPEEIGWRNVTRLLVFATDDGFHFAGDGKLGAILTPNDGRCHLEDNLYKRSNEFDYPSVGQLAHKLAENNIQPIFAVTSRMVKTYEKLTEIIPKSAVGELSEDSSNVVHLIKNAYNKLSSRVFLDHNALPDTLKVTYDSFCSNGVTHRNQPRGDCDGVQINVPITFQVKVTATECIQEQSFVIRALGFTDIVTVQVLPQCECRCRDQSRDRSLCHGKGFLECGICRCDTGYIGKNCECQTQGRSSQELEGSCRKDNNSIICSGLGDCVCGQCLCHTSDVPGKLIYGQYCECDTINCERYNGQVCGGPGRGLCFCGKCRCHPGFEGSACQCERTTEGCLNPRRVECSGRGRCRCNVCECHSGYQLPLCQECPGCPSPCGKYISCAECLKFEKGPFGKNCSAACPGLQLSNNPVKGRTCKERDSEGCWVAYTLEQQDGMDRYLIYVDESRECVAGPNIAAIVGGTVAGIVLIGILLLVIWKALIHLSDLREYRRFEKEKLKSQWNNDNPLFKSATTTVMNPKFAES

`C[C@@H]1CCN([C@H](Cc2cccc3ccccc23)C(N)=O)C(=O)[C@H](c2ccccc2)N1C(=O)Cc1ccc2ncccc2c1` [Example 3, (R)-2-[(3S,5R)-5-Methyl-2-oxo-3-phenyl-4-(quinolin-6-yl-acetyl)-[1,4]diazepan-1-yl)-3-(naphthalen-1-yl)-propionamide] displayed an IC50 in test [1] of 70 nM. Further, the values for the inhibiting effect in test [2] (administered p.o. at a dose of 2 x 3 mg/kg) and in test [2] (applied topically at a dose of 10 mM) were 40% and 50%, respectively.
